According to US8772323B2, “Benzoxazole- and tetrahydrobenzoxazole-substituted pyridazinones as GPR119 agonists” (Boehringer Ingelheim International GmbH, priority 2010, dated 2014):
Structures can show the parent of a compound that is named as a salt.

Molecular target: human GPR119 (Homo sapiens (Human), UniProt Q8TDV5)
Test: AlphaScreen cAMP assay in Min-6/hGPR119 cells (GPR119 activation, intracellular cAMP)
Assay type: cell-based
Conditions: MIN6 cells stably transfected with human GPR119; 45 minutes' incubation at RT; AlphaScreen cAMP Assay Kit
Description: The compounds of formula I according to the invention are GPR119 agonists. The effect of the compounds on the activation of GPR119 and on the stimulation of intracellular cAMP concentration is determined using the AlphaScreen cAMP Assay Kit (Cat. No. #6760625R) made by PerkinElmer.
MIN6 cells [Miyazaki J et al. Endocrinology. 1990 July; 127(1):126-32] were stably transfected with an expression vector for human GPR119 cDNA (Acc. No. NP_848566). Min-6/hGPR119 cells are cultured in DMEM, 10% FBS, 50 μM β-mercaptoethanol, 0.3 mg/mL Geniticin, 2 mM GlutaMAX at 37° C. 5% CO2. For the assay, the cells are placed in Optiplates (white, 384-well, 160W-barcoded, TC, sterile with lid, Cat. No. #6007688 (Perkin Elmer); 10000 cells/well; 50 μl). The plates covered with lids are then incubated for 24 hours at 37° C./5% CO2.
After the medium has been sucked out of the wells completely, 10 μl of the test compound are added, the compounds are diluted beforehand with stimulating buffer (140 mM NaCl, 3.6 mM KCl, 0.5 mM NaH2PO4, 0.5 mM MgSO4, 1.5 mM CaCl2, 10 mM Hepes, 5 mM NaHCO3; pH 7.4. 0.5 mM IBMX and 0.1% BSA, the final DMSO concentration is 1%). After 45 minutes' incubation at RT, the cAMP concentrations are determined using the AlphaScreen cAMP Assay Kit (Cat. No. #6760625R from PerkinElmer).

Chain of human GPR119 (Q8TDV5 whole entry): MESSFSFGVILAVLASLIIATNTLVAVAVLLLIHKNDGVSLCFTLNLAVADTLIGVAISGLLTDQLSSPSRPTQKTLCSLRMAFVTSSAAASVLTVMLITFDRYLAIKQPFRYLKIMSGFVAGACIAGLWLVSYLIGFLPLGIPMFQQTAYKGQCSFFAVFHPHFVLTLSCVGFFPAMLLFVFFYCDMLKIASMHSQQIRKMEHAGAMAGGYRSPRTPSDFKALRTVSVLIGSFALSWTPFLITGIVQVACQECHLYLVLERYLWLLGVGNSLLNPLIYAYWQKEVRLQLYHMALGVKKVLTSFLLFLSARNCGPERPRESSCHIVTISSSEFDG

SMILES | EC50
CCC1CC(=O)NN=C1c1ccc2nc(-c3ccc(OC[C@H]4CCCN4C(C)C)cc3)oc2c1 (stereo partly drawn) [Example 241, 5-ethyl-6-{2-[4-(1-isopropyl-R-pyrrolidin-2-yl-methoxy)-phenyl]-benzoxazol-6-yl}-4,5-dihydro-2H-pyridazin-3-one] | 191 nM
CCC[C@H]1C(=O)NN=C(c2ccc3nc(-c4ccccc4)oc3c2)[C@H]1C (relative stereo) [Example 129, cis-5-methyl-6-(2-phenyl-benzoxazol-6-yl)-4-propyl-4,5-dihydro-2H-pyridazin-3-one] | 6720 nM
CC[C@@H]1C(=O)NN=C(c2ccc3nc(-c4ccccc4)oc3c2)[C@H]1C (relative stereo) [Example 126, trans-4-ethyl-5-methyl-6-(2-phenyl-benzoxazol-6-yl)-4,5-dihydro-2H-pyridazin-3-one] | 306 nM
CCC1CC(=O)NN=C1c1ccc2nc(-c3ccc(OCCN4CCC(F)CC4)cc3)oc2c1 (stereo not drawn) [Example 248, 5-ethyl-6-(2-{4-[2-(4-fluoro-piperidin-1-yl)-ethoxy]-phenyl}-benzoxazol-6-yl)-4,5-dihydro-2H-pyridazin-3-one] | 159 nM
CCC1CC(=O)NN=C1c1ccc2nc(-c3cccc(OCCN4CCN(C(=O)OC(C)(C)C)CC4)c3)oc2c1 (stereo not drawn) [Example 155, tert-butyl 4-(2-{3-[6-(4-ethyl-6-oxo-1,4,5,6-tetrahydro-pyridazin-3-yl)-benzoxazol-2-yl]-phenoxy}-ethyl)-piperazine-1-carboxylate] | 7750 nM
CCC1CC(=O)NN=C1c1ccc2nc(-c3ccc(OCCN4CCCC4)cc3)oc2c1 (stereo not drawn) [Example 159, 5-ethyl-6-{2-[4-(2-pyrrolidin-1-yl-ethoxy)-phenyl]-benzoxazol-6-yl}-4.5-dihydro-2H-pyridazin-3-one] | 623 nM
CCC1CC(=O)NN=C1c1ccc2nc(-c3ccc(OCCN4CCCC4=O)cc3)oc2c1 (stereo not drawn) [Example 167, 5-ethyl-6-(2-{4-[2-(2-oxo-pyrrolidin-1-yl)-ethoxy]-phenyl}-benzoxazol-6-yl)-4,5-dihydro-2H-pyridazin-3-one] | 1030 nM
CCC1CC(=O)NN=C1c1ccc2nc(-c3ccc(OCC(C)(C)N4CCCC4)cc3)oc2c1 (stereo not drawn) [Example 229, 5-ethyl-6-(2-{4-[2-methyl-2-(pyrrolidin-1-yl)propoxy]phenyl}-1,3-benzoxazol-6-yl)-2,3,4,5-tetrahydropyridazin-3-one] | 398 nM
CCCOc1ccc(-c2nc3ccc(C4=NNC(=O)CC4CC)cc3o2)cc1 (stereo not drawn) [Example 52, 5-ethyl-6-[2-(4-propoxy-phenyl)-benzoxazol-6-yl]-4,5-dihydro-2H-pyridazin-3-one] | 189 nM
CCC1CC(=O)NN=C1c1ccc2nc(-c3ccc(OCc4cccs4)cc3)oc2c1 (stereo not drawn) [Example 51, 5-ethyl-6-{2-[4-(thiophen-2-ylmethoxy)-phenyl]-benzoxazol-6-yl}-4,5-dihydro-2H-pyridazin-3-one] | 158 nM
C[C@@H]1C(=O)NN=C(c2ccc3nc(-c4ccccc4)oc3c2)[C@H]1C [Example 26, (4S,5S)-4,5-dimethyl-6-(2-phenyl-benzoxazol-6-yl)-4,5-dihydro-2H-pyridazin-3-one] | 166 nM
Cc1ccc(-c2nc3ccc(C4=NNC(=O)CC4C)cc3o2)s1 (stereo not drawn) [Example 87, 5-methyl-6-[2-(5-methyl-thiophen-2-yl)-benzoxazol-6-yl]-4,5-dihydro-2H-pyridazin-3-one] | 100 nM
COc1ccc(-c2nc3ccc(C4=NNC(=O)CC4C)cc3o2)cc1 (stereo not drawn) [Example 83, 6-[2-(4-methoxy-phenyl)-benzoxazol-6-yl]-5-methyl-4,5-dihydro-2H-pyridazin-3-one] | 94 nM
CCC1OC(=O)NN=C1c1ccc2nc(-c3ccccc3)oc2c1 (stereo in doubt) [Example 80, (R)-6-ethyl-5-(2-phenyl-benzoxazol-6-yl)-3,6-dihydro-[1,3,4]oxadiazin-2-one] | 615 nM
CCC1CC(=O)NN=C1c1ccc2nc(-c3ccc(OC(C)CN4CCCC4)cc3)oc2c1 (stereo not drawn) [Example 210, 5-ethyl-6-[2-(4-{[1-(pyrrolidin-1-yl)propan-2-yl]oxy}phenyl)-1,3-benzoxazol-6-yl]-2,3,4,5-tetrahydropyridazin-3-one] | 590 nM
CCC1CC(=O)NN=C1c1ccc2nc(-c3ccc(OCc4cncnc4)cc3)oc2c1 (stereo not drawn) [Example 59, 5-ethyl-6-{2-[4-(pyrimidin-5-ylmethoxy)-phenyl]-benzoxazol-6-yl}-4,5-dihydro-2H-pyridazin-3-one] | 1590 nM
COC(=O)c1ccc(-c2nc3ccc(C4=NNC(=O)CC4C)cc3o2)cc1 (stereo not drawn) [Example 90, methyl 4-[6-(4-methyl-6-oxo-1,4,5,6-tetrahydro-pyridazin-3-yl)-benzoxazol-2-yl]-benzoate] | 763 nM

SMILES | EC50
CC1CC(=O)NN=C1c1ccc2nc(-c3ccccc3)oc2c1 (stereo not drawn) [Example 82, 5-methyl-6-(2-phenyl-benzoxazol-6-yl)-4,5-dihydro-2H-pyridazin-3-one] | 189 nM
O=C1NN=C([C@@H]2CCc3nc(-c4ccccc4)oc3C2)[C@H]2C[C@@H]12 [Example 132, (1R,6S)-5-((R)-2-phenyl-4,5,6,7-tetrahydro-benzoxazol-6-yl)-3,4-diaza-bicyclo[4.1.0]hept-4-en-2-one] | 4160 nM
CC[C@H]1C(=O)NN=C(c2ccc3nc(-c4ccccc4)oc3c2)[C@H]1C [Example 127, (4R,5S)-4-ethyl-5-methyl-6-(2-phenyl-1,3-benzoxazol-6-yl)-2,3,4,5-tetrahydropyridazin-3-one] | 2590 nM
CCC1CC(=O)NN=C1c1ccc2nc(-c3ccc(OCC(=O)N(C)C)cc3)oc2c1 (stereo not drawn) [Example 41, 2-{4-[6-(4-ethyl-6-oxo-1,4,5,6-tetrahydro-pyridazin-3-yl)-benzoxazol-2-yl]-phenoxy}-N,N-dimethyl-acetamide] | 1520 nM
O=C1NN=C(c2ccc3nc(-c4ccc(F)cc4)oc3c2)C2CC12 (stereo not drawn) [Example 18, 5-[2-(4-fluoro-phenyl)-benzoxazol-6-yl]-3,4-diaza-bicyclo[4.1.0]hept-4-en-2-one] | 153 nM
CCC1CC(=O)NN=C1c1ccc2nc(-c3ccc(OCc4ccccn4)cc3)oc2c1 (stereo not drawn) [Example 47, 5-ethyl-6-{2-[4-(pyridin-2-ylmethoxy)-phenyl]-benzoxazol-6-yl}-4,5-dihydro-2H-pyridazin-3-one] | 226 nM
CC1CC(=O)NN=C1c1ccc2nc(-c3cccc(OCC4CCNCC4)c3)oc2c1 (stereo not drawn) [Example 73, 5-methyl-6-{2-[3-(piperidin-4-ylmethoxy)-phenyl]-benzoxazol-6-yl}-4,5-dihydro-2H-pyridazin-3-one hydrochloride] | 6770 nM
CC[C@H]1C(c2ccc3nc(-c4ccc(OC(C)C)cc4)oc3c2)=NNC(=O)[C@@H]1C [Example 208, (4R,5R)-5-ethyl-4-methyl-6-{2-[4-(propan-2-yloxy)phenyl]-1,3-benzoxazol-6-yl}-2,3,4,5-tetrahydropyridazin-3-one] | 88 nM
CCC1CC(=O)NN=C1c1ccc2nc(-c3ccc(OCCN4[C@@H](C)CC[C@@H]4C)cc3)oc2c1 (stereo in doubt) [Example 250, 6-(2-{4-[2-((2R,5R)-trans-2,5-dimethylpyrrolidin-1-yl)-ethoxy]-phenyl}-benzoxazol-6-yl)-5-ethyl-4,5-dihydro-2H-pyridazin-3-one] | 235 nM
CC1CC(=O)NN=C1c1ccc2nc(-c3cccc(Cl)c3)oc2c1 (stereo not drawn) [Example 88, 6-[2-(3-chloro-phenyl)-benzoxazol-6-yl]-5-methyl-4,5-dihydro-2H-pyridazin-3-one] | 260 nM
CCC1CC(=O)NN=C1c1ccc2nc(-c3ccc(OCc4ccccc4)cc3)oc2c1 (stereo not drawn) [Example 33, 6-[2-(4-benzyloxy-phenyl)-benzoxazol-6-yl]-5-ethyl-4,5-dihydro-2H-pyridazin-3-one] | 70 nM
COc1cccc(-c2nc3ccc(C4=NNC(=O)CC4C)cc3o2)c1 (stereo not drawn) [Example 85, 6-[2-(3-methoxy-phenyl)-benzoxazol-6-yl]-5-methyl-4,5-dihydro-2H-pyridazin-3-one] | 334 nM
CC[C@@H]1CC(=O)NN=C1c1ccc2nc(-c3ccc(OCCN(C(C)C)C(C)C)cc3)oc2c1 [Example 259, (R)-6-{2-[4-(2-diisopropylamino-ethoxy)-phenyl]-benzoxazol-6-yl}-5-ethyl-4,5-dihydro-2H-pyridazin-3-one] | 22 nM
CC1CC(c2ccc3nc(-c4cccs4)oc3c2)=NNC1=O (stereo not drawn) [Example 139, 4-methyl-6-(2-thiophen-2-yl-benzoxazol-6-yl)-4,5-dihydro-2H-pyridazin-3-one] | 1560 nM
CCCC1CCN(CCOc2ccc(-c3nc4ccc(C5=NNC(=O)CC5CC)cc4o3)cc2)CC1 (stereo not drawn) [Example 244, 5-ethyl-6-(2-{4-[2-(4-propyl-piperidin-1-yl)-ethoxy]-phenyl}-benzoxazol-6-yl)-4,5-dihydro-2H-pyridazin-3-one] | 181 nM
CCC1CC(=O)NN=C1c1ccc2nc(-c3cccc(OCCN4CCC(C#N)CC4)c3)oc2c1 (stereo not drawn) [Example 153, 1-(2-{3-[6-(4-ethyl-6-oxo-1,4,5,6-tetrahydro-pyridazin-3-yl)-benzoxazol-2-yl]-phenoxy}-ethyl)-piperidine-4-carbonitrile] | 735 nM
